Test [1] has as its target T1, UvrA-mNeonGreen (UvrA-mNG) (Escherichia coli, UniProt P0A698).
T1 construct: C-terminal mNeonGreen reporter fusion; plasmid as in Bernacchia et al. 2023
Description: C-trap optical tweezers, single-molecule DNA binding. It counts as biochemical. The settings on record: 20 μM Bemcentinib; lambda DNA at 50 pN; 1 mM ATP, 10 mM MgCl2, pH 7.5.

The next test has as its target T2, UvrA (Escherichia coli, UniProt P0A698).
T2 construct: recombinant, IPTG-induced, Ni-NTA purified; plasmid as in Bernacchia et al. 2023; homodimer
The test is described as follows: NADH-linked ATPase assay, Hill fit. The format is biochemical.

T2 sequence (P0A698 whole entry): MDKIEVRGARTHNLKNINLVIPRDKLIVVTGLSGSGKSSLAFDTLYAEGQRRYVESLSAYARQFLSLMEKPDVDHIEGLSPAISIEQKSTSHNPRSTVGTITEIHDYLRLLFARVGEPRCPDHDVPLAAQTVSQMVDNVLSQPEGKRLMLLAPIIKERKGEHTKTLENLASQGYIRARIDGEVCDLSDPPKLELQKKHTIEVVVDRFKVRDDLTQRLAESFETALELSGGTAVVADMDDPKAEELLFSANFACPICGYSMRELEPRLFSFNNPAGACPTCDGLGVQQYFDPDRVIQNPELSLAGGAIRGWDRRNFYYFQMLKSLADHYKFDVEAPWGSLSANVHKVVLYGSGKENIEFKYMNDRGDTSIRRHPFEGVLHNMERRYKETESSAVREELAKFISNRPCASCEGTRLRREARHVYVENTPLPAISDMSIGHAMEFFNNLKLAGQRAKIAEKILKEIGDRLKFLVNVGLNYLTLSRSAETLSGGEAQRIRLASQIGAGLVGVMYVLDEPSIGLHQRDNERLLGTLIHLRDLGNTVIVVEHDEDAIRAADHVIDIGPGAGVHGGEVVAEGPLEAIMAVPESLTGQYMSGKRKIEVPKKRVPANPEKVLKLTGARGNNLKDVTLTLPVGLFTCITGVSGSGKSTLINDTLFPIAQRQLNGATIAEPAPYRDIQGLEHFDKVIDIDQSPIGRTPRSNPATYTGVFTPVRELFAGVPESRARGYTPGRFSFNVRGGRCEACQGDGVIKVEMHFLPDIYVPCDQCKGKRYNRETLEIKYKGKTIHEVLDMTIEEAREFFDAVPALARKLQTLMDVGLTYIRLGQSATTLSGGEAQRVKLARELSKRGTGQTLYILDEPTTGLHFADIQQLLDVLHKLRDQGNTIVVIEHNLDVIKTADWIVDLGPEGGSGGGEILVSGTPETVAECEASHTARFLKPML
T1 sequence (P0A698 whole entry, the tested form may be a part): as the sequence (P0A698 whole entry) above

For orientation: IC50 means the concentration at which inhibition is half-maximal. The low end stands for inhibition by little substance, the high end for a need for much substance. Take `Nc1nc(Nc2ccc3c(c2)CC[C@@H](N2CCCC2)CC3)nn1-c1cc2c(nn1)-c1ccccc1CCC2` [Bemcentinib]: the “% reduction in DNA binders per minute at 20 μM” value in test [1] is listed as ~ 90%. Besides, 7.49 µM corresponded to half-maximal inhibition against UvrA (IC50).
